From patent US20090036474A1, “Quinazoline derivatives for use against cancer” (priority 2004, published 2009)

Biological target: T1, KDR tyrosine kinase (Homo sapiens, UniProt P35968)
T1 construct: a DNA fragment encoding most of the cytoplasmic domain, commencing with methionine 806 and including the termination codon; made in house; host or cells: Sf9 insect cells (recombinant baculovirus)
Experiment: In vitro enzyme assay (ELISA), Test (a), KDR
Format: biochemical
Conditions: ATP 8 μM, read-out: IC50 versus KDR tyrosine kinase
Experimental: The ability of test compounds to inhibit the phosphorylation of a tyrosine containing polypeptide substrate by the tyrosine kinase enzymes PDGFRα, PDGFRβ and KDR was assessed using conventional ELISA assays. DNA encoding the PDGFRα, PDGFRβ or KDR receptor cytoplasmic domains may be obtained by total gene synthesis (International Biotechnology Lab., 1987, 5(3), 19-25) or by cloning. The DNA fragments may be expressed in a suitable expression system to obtain polypeptide with tyrosine kinase activity. For example, PDGFRα, PDGFRβ and KDR receptor cytoplasmic domains, obtained by expression of recombinant protein in insect cells, can be shown to display intrinsic tyrosine kinase activity. In the case of the VEGF receptor KDR (Genbank Accession No. L04947), a DNA fragment encoding most of the cytoplasmic domain, commencing with methionine 806 and including the termination codon may be cloned into a baculovirus transplacement vector [for example pAcYM1 (see The Baculovirus Expression System: A Laboratory Guide, L. A. King and R. D. Possee, Chapman and Hall, 1992) or pAc360 or pBlueBacHis (available from Invitrogen Corporation)]. This recombinant construct may be co-transfected into insect cells [for example Spodoptera frugiperda 21(Sf21) or Spodoptera frugiperda 9(Sf9)] with viral DNA (for example Pharmingen BaculoGold) to prepare recombinant baculovirus. Details of the methods for the assembly of recombinant DNA molecules and the preparation and use of recombinant baculovirus can be found in standard texts, for example Sambrook et al., 1989, Molecular cloning—A Laboratory Manual, 2nd edition, Cold Spring Harbour Laboratory Press and O'Reilly et al., 1992, Baculovirus Expression Vectors—A Laboratory Manual, W. H. Freeman and Co, New York).
For expression, Sf9 cells were infected with plaque-pure KDR recombinant virus and harvested 48 hours later. […]

T1 sequence (P35968 786-1356 limits assumed): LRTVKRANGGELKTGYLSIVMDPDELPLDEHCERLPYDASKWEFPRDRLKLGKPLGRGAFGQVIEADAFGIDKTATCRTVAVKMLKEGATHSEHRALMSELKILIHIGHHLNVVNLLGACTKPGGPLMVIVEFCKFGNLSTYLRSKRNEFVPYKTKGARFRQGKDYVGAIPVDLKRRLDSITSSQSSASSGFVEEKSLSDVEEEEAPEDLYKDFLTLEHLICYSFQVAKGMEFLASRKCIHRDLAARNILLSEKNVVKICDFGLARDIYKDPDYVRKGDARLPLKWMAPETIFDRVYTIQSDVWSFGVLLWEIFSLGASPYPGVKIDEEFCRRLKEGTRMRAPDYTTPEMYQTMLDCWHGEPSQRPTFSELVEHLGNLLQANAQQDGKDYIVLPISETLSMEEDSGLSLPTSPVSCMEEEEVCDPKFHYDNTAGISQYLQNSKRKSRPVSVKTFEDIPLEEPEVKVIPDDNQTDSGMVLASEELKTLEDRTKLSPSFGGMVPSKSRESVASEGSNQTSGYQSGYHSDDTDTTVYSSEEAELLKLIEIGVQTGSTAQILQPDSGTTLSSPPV

**Q.** Which IC50 does the source give for COc1cc2ncnc(Oc3cnn(CC(=O)Nc4cccc5c4OCO5)c3)c2cc1OC [Example 2, N-(2,3-methylenedioxyphenyl)-2-[4-(6,7-dimethoxyquinazolin-4-yloxy)pyrazol-1-yl]acetamide] here?
**A.** ~1 nM
